Assay: xn = mol fraction of the nth substance listed
Settings: Liquid, Vibrating tube method

CCCCCCCCCC [decane] + CCO
Settings | mass density [kg/m3]
352.7 K, 1000 kPa, x2 = 0.1011 | 683.33
352.7 K, 2000 kPa, x2 = 0.1011 | 684.45
352.7 K, 3000 kPa, x2 = 0.1011 | 685.55
352.7 K, 4000 kPa, x2 = 0.1011 | 686.65
352.7 K, 5000 kPa, x2 = 0.1011 | 687.72
352.7 K, 6000 kPa, x2 = 0.1011 | 688.78
352.7 K, 7000 kPa, x2 = 0.1011 | 689.84
352.7 K, 8000 kPa, x2 = 0.1011 | 690.9
352.7 K, 9000 kPa, x2 = 0.1011 | 691.94
352.7 K, 10000 kPa, x2 = 0.1011 | 692.96
352.7 K, 11000 kPa, x2 = 0.1011 | 693.98
352.7 K, 12000 kPa, x2 = 0.1011 | 695
352.7 K, 13000 kPa, x2 = 0.1011 | 695.99
352.7 K, 14000 kPa, x2 = 0.1011 | 696.97
352.7 K, 15000 kPa, x2 = 0.1011 | 697.93
352.7 K, 16000 kPa, x2 = 0.1011 | 698.88
352.7 K, 17000 kPa, x2 = 0.1011 | 699.83
352.7 K, 18000 kPa, x2 = 0.1011 | 700.74
352.7 K, 19000 kPa, x2 = 0.1011 | 701.63
352.7 K, 20000 kPa, x2 = 0.1011 | 702.51
352.76 K, 1000 kPa, x2 = 0.7526 | 702.43
352.76 K, 2000 kPa, x2 = 0.7526 | 703.63
352.76 K, 3000 kPa, x2 = 0.7526 | 704.82
352.76 K, 4000 kPa, x2 = 0.7526 | 706.01
352.76 K, 5000 kPa, x2 = 0.7526 | 707.19
352.76 K, 6000 kPa, x2 = 0.7526 | 708.35
352.76 K, 7000 kPa, x2 = 0.7526 | 709.51
352.76 K, 8000 kPa, x2 = 0.7526 | 710.66
352.76 K, 9000 kPa, x2 = 0.7526 | 711.8
352.76 K, 10000 kPa, x2 = 0.7526 | 712.92
352.76 K, 11000 kPa, x2 = 0.7526 | 714.03
352.76 K, 12000 kPa, x2 = 0.7526 | 715.12
352.76 K, 13000 kPa, x2 = 0.7526 | 716.21
352.76 K, 14000 kPa, x2 = 0.7526 | 717.27
352.76 K, 15000 kPa, x2 = 0.7526 | 718.31
352.76 K, 16000 kPa, x2 = 0.7526 | 719.35
352.76 K, 17000 kPa, x2 = 0.7526 | 720.36
352.76 K, 18000 kPa, x2 = 0.7526 | 721.35
352.76 K, 19000 kPa, x2 = 0.7526 | 722.32
352.76 K, 20000 kPa, x2 = 0.7526 | 723.29
352.85 K, 1000 kPa, x2 = 0.2507 | 684.78
352.85 K, 2000 kPa, x2 = 0.2507 | 685.92
352.85 K, 3000 kPa, x2 = 0.2507 | 687.03
352.85 K, 4000 kPa, x2 = 0.2507 | 688.14
352.85 K, 5000 kPa, x2 = 0.2507 | 689.24
352.85 K, 6000 kPa, x2 = 0.2507 | 690.33
352.85 K, 7000 kPa, x2 = 0.2507 | 691.41
352.85 K, 8000 kPa, x2 = 0.2507 | 692.48
352.85 K, 9000 kPa, x2 = 0.2507 | 693.55
352.85 K, 10000 kPa, x2 = 0.2507 | 694.61
352.85 K, 11000 kPa, x2 = 0.2507 | 695.65
352.85 K, 12000 kPa, x2 = 0.2507 | 696.68
352.85 K, 13000 kPa, x2 = 0.2507 | 697.7
352.85 K, 14000 kPa, x2 = 0.2507 | 698.7
352.85 K, 15000 kPa, x2 = 0.2507 | 699.68
352.85 K, 16000 kPa, x2 = 0.2507 | 700.65
352.85 K, 17000 kPa, x2 = 0.2507 | 701.61
352.85 K, 18000 kPa, x2 = 0.2507 | 702.54
352.85 K, 19000 kPa, x2 = 0.2507 | 703.46
352.85 K, 20000 kPa, x2 = 0.2507 | 704.34
362.64 K, 1000 kPa, x2 = 0.1011 | 675.19
362.64 K, 1000 kPa, x2 = 0.4963 | 680.64
362.64 K, 1000 kPa, x2 = 0.9014 | 707.28
362.64 K, 2000 kPa, x2 = 0.1011 | 676.37
362.64 K, 2000 kPa, x2 = 0.4963 | 681.93
362.64 K, 2000 kPa, x2 = 0.9014 | 708.6
362.64 K, 3000 kPa, x2 = 0.1011 | 677.53
362.64 K, 3000 kPa, x2 = 0.4963 | 683.18
362.64 K, 3000 kPa, x2 = 0.9014 | 709.92
362.64 K, 4000 kPa, x2 = 0.1011 | 678.69
362.64 K, 4000 kPa, x2 = 0.4963 | 684.42
362.64 K, 4000 kPa, x2 = 0.9014 | 711.21
362.64 K, 5000 kPa, x2 = 0.1011 | 679.84
362.64 K, 5000 kPa, x2 = 0.4963 | 685.66
362.64 K, 5000 kPa, x2 = 0.9014 | 712.52
362.64 K, 6000 kPa, x2 = 0.1011 | 680.98
362.64 K, 6000 kPa, x2 = 0.4963 | 686.87
362.64 K, 6000 kPa, x2 = 0.9014 | 713.8
362.64 K, 7000 kPa, x2 = 0.1011 | 682.11
362.64 K, 7000 kPa, x2 = 0.4963 | 688.09
362.64 K, 7000 kPa, x2 = 0.9014 | 715.07
362.64 K, 8000 kPa, x2 = 0.1011 | 683.24
362.64 K, 8000 kPa, x2 = 0.4963 | 689.28
362.64 K, 8000 kPa, x2 = 0.9014 | 716.3
362.64 K, 9000 kPa, x2 = 0.1011 | 684.33
362.64 K, 9000 kPa, x2 = 0.4963 | 690.44
362.64 K, 9000 kPa, x2 = 0.9014 | 717.55
362.64 K, 10000 kPa, x2 = 0.1011 | 685.43
362.64 K, 10000 kPa, x2 = 0.4963 | 691.61
362.64 K, 10000 kPa, x2 = 0.9014 | 718.74

Source: the NIST ThermoML archive (doi:10.1016/j.jct.2012.06.012)
